Laboratory results taken from patent US20230000813A1, “COMPOUND FOR THE TREATMENT OF BOVINE OR SWINE RESPIRATORY DISEASE” (Intervet Inc., priority 2016, published 2023).
Converted amounts (≈) assume the structure as drawn.

Experiments:
Assay in all cases: MIC, broth-microdilution (CLSI VET01-A4)
Assay type in all cases: cell-based
[1] = test system: Mannheimia haemolytica MH 13093 (XB0472-6014.1, BRD field isolate)
Method in brief: (§1)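 Broth microdilution per CLSI VET01-A4 using doubling dilution series of compound. MIC taken as the lowest concentration with no turbidity visible to the unaided eye, interpreted per CLSI VET01-S3.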

[2] = test system: Mannheimia haemolytica MH 13065 (XB0446-6003.9, BRD field isolate)
Method in brief: as §1

[3] = test system: Mannheimia haemolytica MH 6374 (ATCC 33396, reference strain); conditions: Mannheimia haemolytica MH 6374; read-out: MIC MH 6374
Method in brief: (§2)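 Broth microdilution per CLSI VET01-A4 using doubling dilution series of test compound; results interpreted per CLSI VET01-S3. MIC recorded as lowest concentration giving no turbidity visible to the unaided eye.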

[4] = test system: Mannheimia haemolytica MH 12587 (1071, BRD field isolate, macrolide-resistance: erm+, E+); conditions: Mannheimia haemolytica MH 12587, macrolide-resistant
Method in brief: as §2

[5] = test system: Mannheimia haemolytica MH 6357 (M7/2, reference strain, cattle infection strain); conditions: Mannheimia haemolytica MH 6357; read-out: MIC MH 6357
Method in brief: as §2

[6] = test system: Pasteurella multocida PM 6267 (P 2225 (L386), reference strain, mouse infection strain); conditions: Pasteurella multocida PM 6267; for MIC: read-out: MIC PM 6267
Method in brief: as §2

[7] = test system: Pasteurella multocida PM 12080 (IV102277-0093, BRD field isolate); conditions: Pasteurella multocida PM 12080; for MIC: read-out: MIC PM 12080
Method in brief: as §2

[8] = test system: Pasteurella multocida PM 6391 (ATCC 43137, reference strain); conditions: Pasteurella multocida PM 6391; for MIC: read-out: MIC PM 6391
Method in brief: as §2

[9] = test system: Pasteurella multocida PM 10775 (080130003051, BRD field isolate); conditions: Pasteurella multocida PM 10775; for MIC: read-out: MIC PM 10775
Method in brief: as §2

[10] = test system: Mannheimia haemolytica MH 10720 (154, BRD field isolate); conditions: Mannheimia haemolytica MH 10720; for MIC: read-out: MIC MH 10720
Method in brief: as §2

SMILES | MIC [1] [µM] | MIC [2] [µM] | MIC [3] [µM] | MIC MH 12587 [4] [µM] | MIC [5] [µM] | MIC [6] [µM] | MIC [7] [µM] | MIC [8] [µM] | MIC [9] [µM] | MIC [10] [µM] | MIC PM 10775 [9] | MIC PM 6267 [6] | MIC PM 12080 [7] | MIC MH 10720 [10] | MIC PM 6391 [8]
CSC(C)(C)[C@H](NC(=O)c1ccc(C#Cc2ccc(CNCc3ccnc(Cl)c3)cc2)cc1)C(=O)NO [Compound 594] | 1.6 (≈ 0.859 µg/mL) | 1.6 (≈ 0.859 µg/mL) | 1.6 (≈ 0.859 µg/mL) | 1.6 (≈ 0.859 µg/mL) | 1.6 (≈ 0.859 µg/mL) | 0.4 (≈ 0.215 µg/mL) | 0.8 (≈ 0.43 µg/mL) | 0.8 (≈ 0.43 µg/mL) | 0.2 (≈ 0.107 µg/mL) | 0.4 (≈ 0.215 µg/mL) | – | – | – | – | –
CSC(C)(C)[C@H](NC(=O)c1ccc(C#Cc2ccc(CNCc3ccccn3)cc2)cc1)C(=O)NO [Compound 595] | 0.8 (≈ 0.402 µg/mL) | 0.8 (≈ 0.402 µg/mL) | 1.6 (≈ 0.804 µg/mL) | 1.6 (≈ 0.804 µg/mL) | 0.8 (≈ 0.402 µg/mL) | 0.2 (≈ 0.101 µg/mL) | 0.4 (≈ 0.201 µg/mL) | 0.8 (≈ 0.402 µg/mL) | – | 0.2 (≈ 0.101 µg/mL) | <=0.1 μM | – | – | – | –
CSC(C)(C)[C@H](NC(=O)c1ccc(C#Cc2ccc(CNCc3ccco3)cc2)cc1)C(=O)NO [Compound 596] | 0.4 (≈ 0.197 µg/mL) | 0.4 (≈ 0.197 µg/mL) | 0.8 (≈ 0.393 µg/mL) | 0.8 (≈ 0.393 µg/mL) | 0.4 (≈ 0.197 µg/mL) | – | – | 0.2 (≈ 0.0983 µg/mL) | – | – | <=0.1 μM | <=0.1 μM | <=0.1 μM | <=0.1 μM | –
CSC(C)(C)[C@H](NC(=O)c1ccc(C#Cc2ccc(CNCc3cccs3)cc2)cc1)C(=O)NO [Compound 597] | 0.8 (≈ 0.406 µg/mL) | 0.8 (≈ 0.406 µg/mL) | 0.8 (≈ 0.406 µg/mL) | 1.6 (≈ 0.812 µg/mL) | 0.8 (≈ 0.406 µg/mL) | – | – | 0.2 (≈ 0.102 µg/mL) | – | – | <=0.1 μM | <=0.1 μM | <=0.1 μM | <=0.1 μM | –
CSC(C)(C)[C@H](NC(=O)c1ccc(C#Cc2ccc(CNCc3nccs3)cc2)cc1)C(=O)NO [Compound 600] | 0.8 (≈ 0.407 µg/mL) | 0.8 (≈ 0.407 µg/mL) | 1.6 (≈ 0.814 µg/mL) | 1.6 (≈ 0.814 µg/mL) | 0.8 (≈ 0.407 µg/mL) | – | – | 0.4 (≈ 0.203 µg/mL) | – | 0.2 (≈ 0.102 µg/mL) | <=0.1 μM | <=0.1 μM | <=0.1 μM | – | –
CC(C)([C@H](NC(=O)c1ccc(C#Cc2ccc(CN3CCOCC3)cc2)cc1)C(=O)NO)S(C)(=O)=O [Compound 604] | 1.6 (≈ 0.822 µg/mL) | 0.8 (≈ 0.411 µg/mL) | 1.6 (≈ 0.822 µg/mL) | 1.6 (≈ 0.822 µg/mL) | 1.6 (≈ 0.822 µg/mL) | – | – | – | – | 0.2 (≈ 0.103 µg/mL) | <=0.1 μM | <=0.1 μM | <=0.1 μM | – | <=0.1 μM
CC(C)([C@H](NC(=O)c1ccc(C#Cc2ccc(CNCC#N)cc2)cc1)C(=O)NO)S(C)(=O)=O [Compound 612] | 0.8 (≈ 0.386 µg/mL) | 0.8 (≈ 0.386 µg/mL) | 0.4 (≈ 0.193 µg/mL) | 1.6 (≈ 0.772 µg/mL) | 0.8 (≈ 0.386 µg/mL) | – | – | – | – | – | <=0.1 μM | <=0.1 μM | <=0.1 μM | <=0.1 μM | <=0.1 μM
CC(C)([C@H](NC(=O)c1ccc(C#Cc2ccc(CNCc3ccnc(Cl)c3)cc2)cc1)C(=O)NO)S(C)(=O)=O [Compound 614] | 0.4 (≈ 0.228 µg/mL) | 0.2 (≈ 0.114 µg/mL) | 0.4 (≈ 0.228 µg/mL) | 0.8 (≈ 0.455 µg/mL) | 0.4 (≈ 0.228 µg/mL) | – | – | – | – | – | <=0.1 μM | <=0.1 μM | <=0.1 μM | <=0.1 μM | <=0.1 μM
CC(C)([C@H](NC(=O)c1ccc(C#Cc2ccc(CNCc3cccs3)cc2)cc1)C(=O)NO)S(C)(=O)=O [Compound 617] | 0.4 (≈ 0.216 µg/mL) | 0.2 (≈ 0.108 µg/mL) | 0.2 (≈ 0.108 µg/mL) | 0.8 (≈ 0.432 µg/mL) | 0.4 (≈ 0.216 µg/mL) | – | – | – | – | – | <=0.1 μM | <=0.1 μM | <=0.1 μM | <=0.1 μM | <=0.1 μM
CC(C)(O)[C@H](NC(=O)c1ccc(C#Cc2ccc(CNCc3ccncc3)cc2)cc1)C(=O)NO [Compound 651] | 0.4 (≈ 0.189 µg/mL) | 0.2 (≈ 0.0945 µg/mL) | 0.2 (≈ 0.0945 µg/mL) | 0.4 (≈ 0.189 µg/mL) | 0.4 (≈ 0.189 µg/mL) | – | – | – | – | – | <=0.1 μM | <=0.1 μM | <=0.1 μM | <=0.1 μM | <=0.1 μM
CC(C)(O)[C@H](NC(=O)c1ccc(C#Cc2ccc(CNCc3nccs3)s2)cc1)C(=O)NO [Compound 735] | 0.4 (≈ 0.194 µg/mL) | 0.2 (≈ 0.0969 µg/mL) | 0.2 (≈ 0.0969 µg/mL) | 0.4 (≈ 0.194 µg/mL) | 0.4 (≈ 0.194 µg/mL) | – | – | – | 0.2 (≈ 0.0969 µg/mL) | – | – | <=0.1 μM | <=0.1 μM | <=0.1 μM | <=0.1 μM
CSC(C)(C)[C@H](NC(=O)c1ccc(C#Cc2ccc(CNCc3ccncc3)s2)cc1)C(=O)NO [Compound 740] | 0.8 (≈ 0.407 µg/mL) | 0.8 (≈ 0.407 µg/mL) | 0.8 (≈ 0.407 µg/mL) | 1.6 (≈ 0.814 µg/mL) | 0.8 (≈ 0.407 µg/mL) | 0.4 (≈ 0.203 µg/mL) | – | 0.4 (≈ 0.203 µg/mL) | – | 0.2 (≈ 0.102 µg/mL) | <=0.1 μM | – | <=0.1 μM | – | –
CSC(C)(C)[C@H](NC(=O)c1ccc(C#Cc2ccc(CNCc3nccs3)nc2)cc1)C(=O)NO [Compound 744] | 1.6 (≈ 0.815 µg/mL) | 0.8 (≈ 0.408 µg/mL) | 0.8 (≈ 0.408 µg/mL) | 1.6 (≈ 0.815 µg/mL) | 0.8 (≈ 0.408 µg/mL) | 0.4 (≈ 0.204 µg/mL) | 0.2 (≈ 0.102 µg/mL) | 0.4 (≈ 0.204 µg/mL) | – | 0.4 (≈ 0.204 µg/mL) | <=0.1 μM | – | – | – | –
CC(C)([C@H](NC(=O)c1ccc(C#Cc2ccc(CNCc3nccs3)s2)cc1)C(=O)NO)S(C)(=O)=O [Compound 745] | 0.4 (≈ 0.219 µg/mL) | 0.4 (≈ 0.219 µg/mL) | 0.2 (≈ 0.109 µg/mL) | 0.4 (≈ 0.219 µg/mL) | 0.4 (≈ 0.219 µg/mL) | – | – | – | – | – | <=0.1 μM | <=0.1 μM | <=0.1 μM | <=0.1 μM | <=0.1 μM
